{
  "source": "ChEMBL document CHEMBL1133835",
  "about": "“A unique ring-expanded acyclic nucleoside analogue that inhibits both adenosine deaminase (ADA) and guanine deaminase (GDA; guanase): synthesis and enzyme inhibition studies of 4,6-diamino-8H-1-hydroxyethoxymethyl-8-iminoimidazo[4,5-e][1,3]diazepine” (Bioorg Med Chem Lett, 2001)",
  "molecular_target": "T1, Adenosine deaminase (Bos taurus, UniProt P56658)",
  "T1 sequence (P56658 whole entry)": "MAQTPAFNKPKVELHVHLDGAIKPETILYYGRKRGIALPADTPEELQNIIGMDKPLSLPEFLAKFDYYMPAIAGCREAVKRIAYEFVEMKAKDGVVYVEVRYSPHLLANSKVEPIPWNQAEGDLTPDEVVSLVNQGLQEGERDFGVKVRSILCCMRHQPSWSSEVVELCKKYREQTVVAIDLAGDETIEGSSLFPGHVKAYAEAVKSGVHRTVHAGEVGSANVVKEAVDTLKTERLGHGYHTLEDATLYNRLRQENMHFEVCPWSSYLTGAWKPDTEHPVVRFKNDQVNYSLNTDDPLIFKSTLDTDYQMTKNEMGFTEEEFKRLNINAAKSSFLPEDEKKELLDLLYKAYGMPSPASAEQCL",
  "experiment": "Binding affinity against Adenosine deaminase from calf intestinal mucosa was determined",
  "type": "tissue-based",
  "data": [
    {"compound": "CCCCCC[C@@H]([C@@H](C)O)n1cnc2c(N)ncnc21", "note": "[EHNA]", "values": [
      {"measurement": "Ki", "value": 10, "unit": "nM"}
    ]}
  ]
}
